Measured values as given in patent US11795190B2, “D-glycero-B-D-heptose 1-phosphate (HMP) conjugates and use for targeted immune modulation” (NATIONAL RESEARCH COUNCIL OF CANADA, priority 2017, dated 2023).

Tests used:
[1] = tested on: human colonic epithelial cells (HCT 116), wild type; test: IL-8 ELISA in wild type HCT 116 cells after digitonin-permeabilised stimulation; format: cell-based; details: FIG. 11; WT HCT 116; 10, 30 or 50 μg/mL, digitonin 20 min, IL-8 after 6 hours
Procedure: (§1) Wild type (WT) or TIFA knockout (TIFA KO) cells were treated with compounds in the presence of digitonin for 20 min, treatment was removed, cells were washed and then cultured in normal medium without the synthetic compounds for 6 hr before IL-8 levels in culture supernatants were measured by ELISA. (A) Cells were treated with water or 10 μg/mL of the indicated compound. Data are means±standard error mean of technical triplicates. (B) Cells were treated with the NOD1 agonist C12-iE-DAP (39.8 μM) or with two different molar concentrations of compounds (30 μM or 150 μM). Two batches of dd-β-HBP and dd-β-HMP synthesized independently of one another were tested (batch #1 and batch #2) to assess consistency of the chemical synthesis. Data are means±standard error mean of two (150 μM treatment) or three (all other treatments) independent experiments. Nod1 agonist: C12-iE-DAP (20 μg/ml, 39.8 μM); JS-12: D-glycero-D-manno-heptose; JS-2: D-glycero-D-manno-heptose 7-phosphate; JS-7:D-glycero-β-D-manno-heptose-phosphate; JS-8: d-glycero-α-d-manno-heptose-phosphate; JS-9: β-d-mannose phosphate; JS-6:d-glycero-β-d-manno heptose 1,7-biphosphate; JS-5: d-glycero-α-d-manno heptose 1,7-biphosphate.
(§2) FIG. 11. Stimulation of human colonic epithelial cells by compounds/products according to the invention. Human colonic epithelial cells (HCT 116) that were either wild type (WT) or deficient in TIFA protein expression (knockout, KO) were stimulated for 20 minutes in permeabilization buffer (5 μg/mL digitonin) in the presence of water or 10 μg/mL, 30 μg/mL, or 50 μg/mL of indicated synthetic compounds according to the invention. Treatment was removed, cells were washed, and cells were incubated for 6 hours in complete media before IL-8 levels in culture supernatants was measured by ELISA. The results are the mean±standard error of the mean of three technical replicates. JS-10: 7-O-(Aminoethyl)-D-glycero-β-D-manno-heptopyranose phosphate; JS-11: 7-O-(Aminoethyl) -D-glycero-D-manno-heptopyranose; JS-12: D-glycero-D-manno-heptose; Js-13: pH-Rhodo -7-O-(aminoethyl)-D-glycero-β-D-manno-heptopyranose phosphate.
FIG. 13. […] Treatment was removed, cells were washed, and cells were incubated for 6 hours in complete media before IL-8 levels in culture supernatants were measured by ELISA. The results are the mean±standard error of the mean of two (150 μM treatment) or three (all other treatments) independent experiments. #=none detected, JS-10: 7-O-(Aminoethyl)-d-glycero-β-d-manno-heptopyranose phosphate; JS-14: Biotin-7-O-(aminoethyl)-d-glycero-β-d-manno-heptopyranose phosphate, Nod1 agonist: C12-iE-DAP (20 μg/ml, 39.8 μM).
FIG. 16. […] Treatment was removed, cells were washed, and cells were incubated for 6 hours in complete media before IL-8 levels in culture supernatants were measured by ELISA. […]

[2] = tested on: HCT 116 cells deficient in TIFA protein expression (TIFA KO); test: IL-8 ELISA in TIFA knockout HCT 116 cells; format: cell-based, human; details: TIFA KO HCT 116
Procedure: as §1, §2
(§3) FIG. 13. Stimulation of human colonic epithelial cells by compounds/products according to the invention. Human colonic epithelial cells (HCT 116) that were either wild type (WT) or deficient in TIFA protein expression (knockout, TIFA KO) were stimulated for 20 minutes in permeabilization buffer (5 μg/mL digitonin) in the presence of water, 20 μg/mL of the Nod1 agonist C12-iE-DAP (39.8 μM, which induces inflammation in a TIFA-independent manner) or 30 μM or 150 μM of synthetic compound according to the invention. Treatment was removed, cells were washed, and cells were incubated for 6 hours in complete media before IL-8 levels in culture supernatants were measured by ELISA. The results are the mean±standard error of the mean of two (150 μM treatment) or three (all other treatments) independent experiments. #=none detected, JS-10: 7-O-(Aminoethyl)-d-glycero-β-d-manno-heptopyranose phosphate; JS-14: Biotin-7-O-(aminoethyl)-d-glycero-β-d-manno-heptopyranose phosphate, Nod1 agonist: C12-iE-DAP (20 μg/ml, 39.8 μM).
as §3, with “16.” for “13.”, “of” for “of the mean of two (150 μM treatment) or”, “technical replicates. […]” for “(all other treatments) independent experiments. #=none detected, JS-10: 7-O-(Aminoethyl)-d-glycero-β-d-manno-heptopyranose phosphate; JS-14: Biotin-7-O-(aminoethyl)-d-glycero-β-d-manno-heptopyranose phosphate, Nod1 agonist: C12-iE-DAP (20 μg/ml, 39.8 μM).”

[3] = tested on: human macrophage cells (THP-1); test: IL-8 ELISA in THP-1 cells after digitonin-permeabilised stimulation; format: cell-based; details: FIG. 15, higher (150 μM) concentrations, digitonin 20 min, IL-8 after 6 hours
Procedure: FIG. 15. Stimulation of human macrophages by compounds/products according to the invention. Human macrophage cells (THP-1) were stimulated for 20 minutes in permeabilization buffer (5 μg/mL digitonin) in the presence of water, 39.8 μM of the Nod1 agonist C12-iE-DAP (which stimulates in a TIFA-independent manner), or either 30 μM or 150 μM of synthetic compound according to the invention. Treatment was removed, cells were washed, and cells were incubated for 6 hours in complete media before the IL-8 levels in culture supernatants were measured by ELISA. The results are the mean and standard error of the mean of three technical replicates. Nod1 agonist: C12-iE-DAP (20 μg/ml, 39.8 μM); JS-7: JS-7:D-glycero-β-D-manno-heptose-phosphate; JS-10: 7-O-(Aminoethyl)-D-glycero-β-D-manno-heptopyranose phosphate; JS-14: Biotin-7-O-(aminoethyl)-D-glycero-β-D-manno-heptopyranose phosphate.

## NCCOC[C@@H](O)C1O[C@@H](OP(=O)([O-])[O-])C(O)[C@@H](O)[C@@H]1O.[Na+].[Na+] (stereo partly drawn) [JS-10a, 7-O-(Aminoethyl)-D-glycero-β-D-manno-heptopyranose phosphate]
[1]
  inflammatory response (IL-8 in culture supernatant): modest inflammatory response
[2]; FIG. 11, 10, 30 or 50 μg/mL
  activity in TIFA KO cells (IL-8), TIFA dependence: relative absence of activity
[2]; FIG. 13, 30 μM or 150 μM (Nod1 agonist 39.8 μM)
  activity in TIFA KO cells (IL-8), TIFA dependence: relative absence of activity
[3]
  inflammatory response (IL-8 in culture supernatant): stimulate an inflammatory response
